Measurements: patent US20260028354A1, “TETRAHYDRONAPHTHALENE DERIVATIVES AS ESTROGEN RECEPTOR DEGRADERS” (REGENT OF THE UNIVERSITY OF MICHIGAN, priority 2022, published 2026)
Like-named read-outs stand apart in the source and are kept apart here.

Legend:
ER in MCF-7 cells = ER in MCF-7 cells (Homo sapiens (Human), UniProt P03372); experiment: In-cell Western (ICW) ER degradation assay in MCF-7 cells; format: cell-based; settings: for DC50: MCF-7, ER degradation, read-out: MCF7 DC50
MCF-7 cells = experiment: CellTiter-Glo (CTG) cell proliferation assay in MCF-7 cells; format: cell-based; settings: Homo sapiens, MCF7, 144 h, MCF-7 cell proliferation, Day 6
Text: CellTiter-Glo® (CTG) Assays in MCF-7 and T47D Cell Lines.
In vitro Assay: MCF-7 and T47D CTG assay

[1] = MCF7, read-out: MCF7 Dmax, MCF-7, maximal ER degradation, 16 hrs treatment

Sequence of ER in MCF-7 cells (P03372 whole entry): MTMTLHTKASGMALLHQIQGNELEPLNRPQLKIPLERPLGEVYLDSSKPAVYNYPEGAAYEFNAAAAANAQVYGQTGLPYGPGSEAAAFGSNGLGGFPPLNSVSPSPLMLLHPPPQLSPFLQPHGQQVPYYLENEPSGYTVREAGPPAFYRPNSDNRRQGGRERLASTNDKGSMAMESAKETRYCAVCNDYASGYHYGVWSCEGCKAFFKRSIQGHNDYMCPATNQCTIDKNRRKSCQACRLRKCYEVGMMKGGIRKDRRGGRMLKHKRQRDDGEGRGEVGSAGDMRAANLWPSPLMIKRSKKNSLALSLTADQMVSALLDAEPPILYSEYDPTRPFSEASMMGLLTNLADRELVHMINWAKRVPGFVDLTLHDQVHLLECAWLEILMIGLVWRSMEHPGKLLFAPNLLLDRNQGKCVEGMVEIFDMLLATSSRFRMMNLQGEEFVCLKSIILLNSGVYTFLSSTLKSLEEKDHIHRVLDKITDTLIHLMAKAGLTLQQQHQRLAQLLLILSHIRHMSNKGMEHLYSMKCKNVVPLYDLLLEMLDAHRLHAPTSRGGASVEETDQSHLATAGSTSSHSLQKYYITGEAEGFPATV

Row | SMILES | Dmax (ER in MCF-7 cells; MCF7, MCF-7, maximal ER degradation, 16 hrs treatment, read-out: MCF7 Dmax) [%] | DC50 (ER in MCF-7 cells; 16 hrs treatment) [nM] | IC50 (MCF-7 cells) [nM] | Dmax (ER in MCF-7 cells; [1]) [%]
1 | COc1cc(N2CCC(CCN3CCN4c5cc(C)c6c(c5OC[C@H]4C3)CN([C@H]3CCC(=O)NC3=O)C6=O)CC2)c(F)cc1[C@@H]1c2ccc(O)cc2CC[C@@H]1c1ccccc1 [Compound A229, (S)-3-((R)-7-(2-(1-(2-fluoro-4-((1S,2S)-6-hydroxy-2-phenyl-1,2,3,4-tetrahydronaphthalen-1-yl)-5-methoxyphenyl)piper-idin-4-yl)ethyl)-12-methyl-1-oxo-1,3,5,5a,6,7,8,9-octahydro-2H-pyrazino[1′,2′:4,5][1,4]oxazino[2,3-e]isoindol-2-yl)-piperidine-2,6-dione] | > 75 | < 1 | 10 to 100 | 
2 | COc1cc(N2CCC3(CC[C@H](CN4CCC5(CC4)COc4c5cc(C)c5c4CN([C@H]4CCC(=O)NC4=O)C5=O)CO3)CC2)c(F)cc1[C@@H]1c2ccc(O)cc2CC[C@@H]1c1ccccc1 [Compound A230, (S)-3-(1′-(((R)-9-(2-fluoro-4-((1S,2S)-6-hydroxy-2-phenyl-1,2,3,4-tetrahydronaphthalen-1-yl)-5-methoxyphenyl)-1-oxa-9-azaspiro[5.5]undecan-3-yl)methyl)-5-methyl-6-oxo-6,8-dihydro-2H,7H-spiro[furo[2,3-e]isoindole-3,4′-piperidin]-7-yl)piperidine-2,6-dione] |  | < 1 | < 10 | > 75
3 | O=C1CC[C@H](N2Cc3c4c(cc(Cl)c3C2=O)C2(CCN(C[C@H]3CCC5(CCN(c6ccc([C@@H]7c8ccc(O)cc8CC[C@@H]7c7ccccc7)cc6)CC5)OC3)CC2)CO4)C(=O)N1 [Compound A231, (S)-3-(5-chloro-1′-(((R)-9-(4-((1R,2S)-6-hydroxy-2-phenyl-1,2,3,4-tetrahydronaphthalen-1-yl)phenyl)-1-oxa-9-azaspiro[5.5]undecan-3-yl)methyl)-6-oxo-6,8-dihydro-2H,7H-spiro[furo[2,3-e]isoindole-3,4′-pipcridin]-7-yl)piperidine-2,6-dione] |  | < 1 | < 10 | > 75
4 | COc1cc(N2CCC3(CC[C@H](CN4CCC5(CC4)COc4c5cc(Cl)c5c4CN([C@H]4CCC(=O)NC4=O)C5=O)CO3)CC2)c(F)cc1[C@@H]1c2ccc(O)cc2CC[C@@H]1c1ccccc1 [Compound A232, (S)-3-(5-chloro-1′-(((R)-9-(2-fluoro-4-((1S,2S)-6-hydroxy-2-phenyl-1,2,3,4-tetrahydronaphthalen-1-yl)-5-methoxyphenyl)-1-oxa-9-azaspiro[5.5]undecan-3-yl)methyl)-6-oxo-6,8-dihydro-2H,7H-spiro[furo[2,3-e]isoindole-3,4′-piperidin]-7-yl)piperidine-2,6-dione] |  | < 1 | < 10 | > 75
5 | O=C1CC[C@H](N2Cc3c4c(cc(Cl)c3C2=O)C2(CCN(C[C@@H]3CCC5(CCN(c6ccc([C@@H]7c8ccc(O)cc8CC[C@@H]7c7ccccc7)cc6)CC5)OC3)CC2)CO4)C(=O)N1 [Compound A233, (S)-3-(5-chloro-1′-(((S)-9-(4-((1R,2S)-6-hydroxy-2-phenyl-1,2,3,4-tetrahydronaphthalen-1-yl)phenyl)-1-oxa-9-azaspiro[5.5]undecan-3-yl)methyl)-6-oxo-6,8-dihydro-2H,7H-spiro[furo[2,3-e]isoindole-3,4′-piperidin]-7-yl)piperidine-2,6-dione] |  | < 1 | < 10 | > 75
6 | COc1cc(N2CCC3(CC[C@@H](CN4CCC5(CC4)COc4c5cc(Cl)c5c4CN([C@H]4CCC(=O)NC4=O)C5=O)CO3)CC2)c(F)cc1[C@@H]1c2ccc(O)cc2CC[C@@H]1c1ccccc1 [Compound A234, (S)-3-(5-chloro-1′-(((S)-9-(2-fluoro-4-((1S,2S)-6-hydroxy-2-phenyl-1,2,3,4-tetrahydronaphthalen-1-yl)-5-methoxyphenyl)-1-oxa-9-azaspiro[5.5]undecan-3-yl)methyl)-6-oxo-6,8-dihydro-2H,7H-spiro[furo[2,3-e]isoindole-3,4′-piperidin]-7-yl)piperidine-2,6-dione] |  | < 1 | < 10 | > 75
